No end group written: not given here.
Assay: Plasma concentration of infused peptides by radioimmunoassay

SWKPRSQQPDAPLGTGANR [progastrin fragment 1‐19]
Plasma concentration relative to that of progastrin fragment 1‐35 in experiment D (fragment 1‐19 at t150 in part F versus fragment 1‐35 in part D): half
Cmax (human, plasma, iv, 268 pmol/kg/h, SEM): 0.43 ± 0.0899 nM

Source: PMC5350173, “Acute effects of N‐terminal progastrin fragments on gastric acid secretion in man” (Physiological Reports, 2017)
